The target in one data set is CDK9/cyclinT1 (Homo sapiens, UniProt P50750). The data set is described as follows: Assay for inhibition of CDK9/CyclinT1 kinase activity (radiolabel filter binding).
The target in a further data set is CDK7/CyclinH/Mat1 (Homo sapiens, UniProt P50613). The data set is described as follows: Biochemical assay for inhibition of CDK7/CyclinH/MAT1 (radiolabel filter binding).
The subject of data set [1] is phospho-carboxyl terminal domain (Ser5) in HCT116 cells. The data set is described as follows: p-CTD (S5) cell based Acumen assay. Conditions: Homo sapiens, HCT-116, 4 hours, read-out: Relative IC50 for pCTD Ser5. On the procedure:
HCT116 cells (ATCC CCL-247) are cultured in McCoy's 5A Medium Modified media supplemented with 10% FBS, 1% NaPyr and 1% Pen/Strep and plated (prior to becoming 70% confluent) in 96-well flat-bottom plates at a density of 5,000 cells per well in 100 μL volume. The cells are incubated overnight in a cell culture incubator (5% CO2, 95% Relative Humidity (RH) and 37° C.) and allowed to attach to the plate. The following morning, the cells are dosed with compounds. Compound inhibitors are solubilized at 60 μM in culture medium containing 0.6% DMSO. Subsequently compound serial dilutions (1:3) are prepared over a 60 μM to 0.003 μM range. […]
The following day cells are washed three times with PBS (100 μL/well) and incubated with 50 μL/well of secondary antibody (1:2000 dilution, Goat anti-rabbit IgM ALEXA FLUOR™ 488) in PBS for 1 hour at room temperature. […] Plates are analyzed on Acumen on FL2 (mean intensity), and FL3 (total intensity). Fluorescence plates are scanned with ACUMEN EXPLORER™ [Laser-scanning fluorescence microplate cytometer manufactured by TTP LABTECH LTD] to measure anti-phospho-carboxyl terminal domain at Serine 5 (pCTD). […] The IC50 is determined by curve fitting to a four parameter logistic for each output using GENE DATA™.

In data set [2] the test system is KMT2C mutants cancer cell lines. The data set is described as follows: Biomarker study: distribution of anti-proliferation effects. Type of data set: cell-based. On the procedure:
(§1) Cancer cell lines are profiled to evaluate the anti-proliferative activity of a test compound in-vitro. Mutation, copy number and gene expression information of ARID1A, KMT2C, KMT2D and/or RB1 genes across cancer cell lines is obtained from COSMIC database (cancer.sanger.ac.uk) and cBioportal (http://www.cbioportal.org/). Cells are cultured in growth medium and plated into a 96-well plate in 100 μL/well growth medium at 5000 cells/well then incubated at 37° C., 5% CO2 overnight. Cells are cultured using supplier recommended media and conditions well known in the art, for example with RPMI 1640 with or without HEPES & L-Glutamine (Thermo SH30255.01) and 1 mM Sodium Pyruvate, and 10% FBS(Gibco cat #10082). The 1000× intermediate dilution plate is prepared by making a 10 mM working solution of a test sample in DMSO and performing 1:3 dilutions in DMSO for 10 points. The 10× dosing plate is prepared by adding 2 μL from the 1000× intermediate dilution plate to 198 μL of OPTIMEM®+10% FBS and mixing well. The cell plate is then treated by adding 11 μL from the 10× dosing plate into the 100 μL/well cell plate for a 1× final concentration. Staurosporine is used as a maximum growth inhibition control at a final concentration of 5 μM. The cell plate is incubated for 7 days at 37° C., 5% CO2. Seven days after treatment, Cell Titer-Glo® (Promega cat #G7571) assay buffer and substrate are removed from −20° C. and allowed to equilibrate to RT. Assay buffer is added to the substrate and swirled gently to mix. The CELL TITER-GLO® reagent (100 μL/well) is added to the cell plate and incubated at RT for 15 minutes. After 15 minutes, luminescence is read using a plate reader. Data is analyzed in Excel and graphed in GraphPad Prism. Statistical analysis and p value is calculated using Mann-Whitney nonparameteric t tests using GraphPad Prism.
(§2) Anti-proliferative effects of a test compound are categorized as insensitive (IC50≥1 μM), cytostatic (IC50<1 μM and % inhibition <70%) or cytotoxic (IC50<1 μM and % inhibition ≥70%).

In data set [3] the test system is KMT2D mutants cancer cell lines. The data set is described as above. Type of data set: cell-based. On the procedure: as §1, §2
In data set [4] the test system is Others (cancer cell lines). The description is as above. Type of data set: cell-based. On the procedure:
as §1, §2

The subject of data set [5] is RB1 mutants cancer cell lines. The data set is described as above. Format: cell-based. On the procedure: as §1, §2
Data set [6] relates to ARID1A mutants cancer cell lines. The data set is described as above. Type of data set: cell-based. On the procedure: as §1, §2

The text below walks through data of patent US20210032257A1, “(E)-1-(4-(DIMETHYLAMINO)BUT-2-ENOYL)PYRROLIDIN-3-YL 4-((3-ISOPROPYL-5-METHYLPYRAZOLO[1,5-A]PYRIMIDIN-7-YL)AMINO)PIPERIDINE-1-CARBOXYLATE FOR INHIBITING CDK7” (Eli Lilly and Company, priority 2017, published 2021).

Molecules are shown by their SMILES. pIC50: −log10 of the molar value.

Sequence of CDK7/CyclinH/Mat1 (P50613 whole entry, the tested form may be a part): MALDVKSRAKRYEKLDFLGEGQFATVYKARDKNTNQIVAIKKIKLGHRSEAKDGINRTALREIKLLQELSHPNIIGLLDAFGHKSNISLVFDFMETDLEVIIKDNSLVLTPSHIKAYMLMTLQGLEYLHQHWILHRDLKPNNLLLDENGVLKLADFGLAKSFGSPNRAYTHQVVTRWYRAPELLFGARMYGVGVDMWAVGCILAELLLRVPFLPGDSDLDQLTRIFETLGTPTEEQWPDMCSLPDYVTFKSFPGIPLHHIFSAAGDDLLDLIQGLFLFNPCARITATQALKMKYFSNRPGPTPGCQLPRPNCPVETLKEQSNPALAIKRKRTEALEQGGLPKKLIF
Sequence of CDK7/CyclinH/Mat1 (P51946 whole entry partner, the tested form may be a part): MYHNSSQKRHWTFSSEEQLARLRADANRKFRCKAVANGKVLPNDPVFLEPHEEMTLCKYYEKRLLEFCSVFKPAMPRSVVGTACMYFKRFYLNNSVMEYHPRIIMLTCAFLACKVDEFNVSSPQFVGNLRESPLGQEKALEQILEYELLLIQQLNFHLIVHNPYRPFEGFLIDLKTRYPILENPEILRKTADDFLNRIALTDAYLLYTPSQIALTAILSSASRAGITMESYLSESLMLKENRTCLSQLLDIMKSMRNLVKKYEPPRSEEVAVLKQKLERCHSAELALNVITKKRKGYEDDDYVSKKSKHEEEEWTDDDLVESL
Sequence of CDK7/CyclinH/Mat1 (P51948 whole entry partner, the tested form may be a part): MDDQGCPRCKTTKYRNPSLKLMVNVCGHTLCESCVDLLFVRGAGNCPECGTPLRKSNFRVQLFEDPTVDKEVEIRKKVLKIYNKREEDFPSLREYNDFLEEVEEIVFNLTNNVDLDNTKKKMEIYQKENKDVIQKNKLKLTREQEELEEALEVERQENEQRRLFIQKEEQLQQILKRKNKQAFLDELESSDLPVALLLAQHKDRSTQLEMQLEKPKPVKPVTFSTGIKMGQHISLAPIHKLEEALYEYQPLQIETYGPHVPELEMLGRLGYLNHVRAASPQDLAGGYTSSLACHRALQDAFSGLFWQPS
Sequence of CDK9/cyclinT1 (P50750 whole entry): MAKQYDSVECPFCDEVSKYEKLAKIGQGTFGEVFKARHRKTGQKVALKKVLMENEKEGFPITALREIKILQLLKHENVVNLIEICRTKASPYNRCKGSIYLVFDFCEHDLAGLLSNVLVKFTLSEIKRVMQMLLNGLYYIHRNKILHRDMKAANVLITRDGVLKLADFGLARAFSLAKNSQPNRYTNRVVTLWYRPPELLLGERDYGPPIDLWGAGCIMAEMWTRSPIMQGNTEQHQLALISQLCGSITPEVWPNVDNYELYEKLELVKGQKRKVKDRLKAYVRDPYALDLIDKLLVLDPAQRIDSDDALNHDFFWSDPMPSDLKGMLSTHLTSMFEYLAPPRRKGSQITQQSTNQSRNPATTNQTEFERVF
Sequence of CDK9/cyclinT1 (O60563 whole entry partner): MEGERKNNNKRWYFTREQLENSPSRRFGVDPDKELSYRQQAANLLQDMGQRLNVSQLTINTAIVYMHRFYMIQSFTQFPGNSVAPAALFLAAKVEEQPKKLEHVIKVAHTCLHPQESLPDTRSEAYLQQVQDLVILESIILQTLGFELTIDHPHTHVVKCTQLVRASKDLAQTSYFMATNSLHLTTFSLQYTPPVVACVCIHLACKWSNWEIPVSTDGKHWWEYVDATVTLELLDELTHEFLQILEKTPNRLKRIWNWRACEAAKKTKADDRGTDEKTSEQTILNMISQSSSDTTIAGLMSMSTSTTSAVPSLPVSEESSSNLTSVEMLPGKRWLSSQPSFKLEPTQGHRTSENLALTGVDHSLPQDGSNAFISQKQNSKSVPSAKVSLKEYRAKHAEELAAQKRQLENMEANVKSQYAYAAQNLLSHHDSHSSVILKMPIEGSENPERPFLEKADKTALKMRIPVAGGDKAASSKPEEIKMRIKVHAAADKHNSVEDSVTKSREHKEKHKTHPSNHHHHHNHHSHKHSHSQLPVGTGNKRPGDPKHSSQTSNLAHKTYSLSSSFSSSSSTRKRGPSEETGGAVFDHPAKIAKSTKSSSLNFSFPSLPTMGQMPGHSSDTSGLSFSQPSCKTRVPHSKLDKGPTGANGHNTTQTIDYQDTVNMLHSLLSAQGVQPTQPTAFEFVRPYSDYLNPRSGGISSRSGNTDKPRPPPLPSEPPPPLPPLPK
Experimental for CDK7/CyclinH/Mat1: The purpose of this assay is to measure the ability of a compound of the invention to inhibit CDK7/CyclinH/Mat1 complex kinase activity.
The IC50 activity of the inhibitor is determined using radiolabel filter binding (FB) assays using the purified human recombinant enzyme in the presence of ATP//[3^3P]ATP and peptide substrate. The ATP concentrations chosen are at or near the enzyme Km for ATP.
Reactions are carried out in 96 well polystyrene plates in a final volume of 25 μL per well. 5 μL of test compound in 20% DMSO, 10 μL of substrate solution (ATP/33PATP and CDK7/9 tide) and 10 μL of enzyme solution are mixed. […] The enzyme solution is prepared for a final concentration of 1 nM CDK7/CyclinH/Mat1 enzyme [Proqinase 0366-0360-4 Lot 002)] diluted in kinase buffer. Test compounds are serially diluted 1:3 in 20% DMSO to create a 10 point curve at a starting concentration of 20 μM. 20% DMSO buffer alone without test compound is employed as high control (full activity in the absence of any inhibitor), 500 mM EDTA is used to determine the level of background in the absence of enzyme activity (low control). After mixing 5 μL of compounds with 10 μL of enzyme solution the plate is incubated for 0 or 180 minutes at 22° C. After that time the reaction is initiated by the addition of 10 μL substrate solution and incubated for 50 minutes at 22° C. The reaction is terminated by the addition of 80 μL of cold 10% ortophosphoric solution. The Filter Plates (opaque, non-sterile filter plates) are prewashed with 10 μL of 10% orthophosphoric solution to each well. 100 μL of the mixture are transferred to a phosphocellulose filter and incubated at room temperature for 45 minutes. Filter plates are washed with 200 μL 0.5% orthophosphoric acid 3 times on a filter plate processor. Incorporation of 33Pi (counting of “cpm”) is determined by adding 80 μL of MICROSCINT™ to each well and read on a counter after an hour. Data is processed through a [sequence] […] ® tool. Data are analyzed using a 4-parameter nonlinear logistic equation (four-parameter logistic concentration-response curve): Y=bot+[(top-bot)/1+(x/IC50)slope] where Y=% inhibition, X=concentration yielding y % inhibition, Bottom=minimum value of y attained by curve, Top=maximum value of y attained by curve and Slope=steepness of curve at IC50. % Inh=[(median Max−x/median Max−median Min)]·100
IC50: concentration of compound that reduces a given response (ligand binding, enzyme response) by 50%.
Experimental for CDK9/cyclinT1: The IC50 determination for CDK7 and CDK9 are determined as follows.
The IC50 activity of the inhibitor is determined using radiolabel filter binding (FB) assays using the purified human recombinant enzyme in the presence of ATP and peptide substrate. The ATP concentrations chosen are at or near the enzyme Km for ATP. Reactions are carried out in 96 well polystyrene plates in a final volume of 25 μL per well. 5 μL of test compound in 20% DMSO, 10 μL of substrate solution (ATP//[^33P]ATP and CDK7/9 tide) and 10 μL of enzyme solution are mixed. […] The enzyme solution is prepared for a final concentration of 7.5 nM CDK9/cyclinT1 enzyme [Proqinase 0371-0345-1 (Lot 004)] diluted in kinase buffer. Test compounds are serially diluted 1:3 in 20% DMSO to create a 10 point curve at a starting concentration of 2 μM. 20% DMSO buffer alone without test compound is employed as high control (full activity in the absence of any inhibitor), 500 mM EDTA is used to determine the level of background in the absence of enzyme activity (low control). After mixing 5 μL of compounds with 10 μL of enzyme solution the plate is incubated for 0 or 180 minutes at 22° C. After that time the reaction is initiated by the addition of 10 μL substrate solution and incubated for 60 minutes at 22° C. […] 80 μL of MICROSCINT™ is added to each well and read on a scintillation counter after an hour. […]

Usually pIC50 stands for the IC50 on a negative log10 scale, so that one unit is a factor of ten. Consider `Cc1cc(NC2CCN(C(=O)O[C@H]3CCN(C(=O)/C=C/CN(C)C)C3)CC2)n2ncc(C(C)C)c2n1` [Example 1, [(3S)-1-[(E)-4-(dimethylamino)but-2-enoyl]pyrrolidin-3-yl] 4-[(3-isopropyl-5-methyl-pyrazolo[1,5-a]pyrimidin-7-yl)amino]piperidine-1-carboxylate], for which the pIC50 at CDK9/cyclinT1 is 5.23; at CDK7/CyclinH/Mat1 (IC50 in CDK7, 3 hours of preincubation of CDK7 enzyme), 8.63; on CDK7/CyclinH/Mat1 (IC50 in CDK7, without preincubation), 7.76; in data set [1], 6.85. The “Distribution (%) of anti-proliferation effects: Cytotoxic (IC50 <1 μM, % Inh. ≥70)” value in data set [2] is recorded as 70%, n = 7; in data set [3], 76%, n = 19; in data set [4] it was 40%, n = 41; in data set [5], 54%, n = 22; in data set [6], 64%, n = 25.
